Values of other authors, collected in patent US20220315503A1, “METHODS FOR PRODUCING TREATED MANURE” (COMMONWEALTH SCIENTIFIC AND INDUSTRIAL RESEARCH ORGANISATION, priority 2019, published 2022).
Where two headings read alike, the source gives them in different places.

Assays:
[1] = test system: production of CH4 in rumen fluid
[2] = initial concentrations 132 to 177 μg/L; 1.5 hours packed-bed detention time
enteric CH4 emission [3] = conditions: beef cattle; administered in animal feed
enteric CH4 emission [4] = conditions: sheep
enteric CH4 emission [5] = conditions: dairy cattle

**Q.** With ClC(Br)Br [dibromochloromethane] as the molecule, how does the “production of CH4 compared to control in rumen fluid” value ([1]; concentration of 1 μM) read?
**A.** Its value is “inhibit the production of CH4”.

**Q.** And the “production of CH4 compared to control in rumen fluid” value ([1]; concentrations ≥5 μM)?
**A.** Its value is “inhibit the production of CH4”.

**Q.** For BrC(Br)Br [bromoform, tribromomethane], which “production of CH4 compared to control in rumen fluid” value ([1]; concentration of 1 μM) is on record?
**A.** Its value is “inhibit the production of CH4”.

**Q.** What about the “production of CH4 compared to control in rumen fluid” value ([1]; concentrations ≥5 μM) of the same molecule?
**A.** Its value is “inhibit the production of CH4”.

**Q.** And the “reduction (degradation) under anaerobic conditions” value [2]?
**A.** Its value is > 99%.

**Q.** Which results are given for O=[N+]([O-])OCCCO [3NOP, 3-nitrooxypropanol]?
**A.** reduction of CH4 emission (enteric CH4 emission [3]): 59%; reduction in CH4 emissions (enteric CH4 emission [4]): 24%; reduction in CH4 emissions (enteric CH4 emission [5]): up to 60%; overall CH4 yield of spiked feces (CH4 yield of feces; feces spiked with 200 mg kg^−1 dry matter): no significant difference; downstream effect on CH4 emissions of the feces (CH4 yield of feces; inhibitor included in animal diets): no significant downstream effect
